Measurements reported in ChEMBL document CHEMBL1938360, “6-Amino quinazolinedione sulfonamides as orally active competitive AMPA receptor antagonists” (Bioorg Med Chem Lett, 2012).
Activity calls are given as the source filed them. No cut-off for these calls is given here.

How the values were obtained:
[1] = system: Mus musculus; test: Anticonvulsant activity in DBA/2 mouse assessed as protection from audiogenic seizures at 30 mg/kg, po measured 1 hr post administration; format: functional
[2] = Displacement of [3H]CNQX from AMPA receptor on rat brain homogenate; format: tissue-based
[3] = Oral bioavailability in DBA/2 mouse at 30 mg/kg; format: ADME, organism-based; conditions: in vivo
[4] = system: Mus musculus; test: Anticonvulsant activity against po dosed electric-shock mouse model assessed as inhibition of convulsion in hind legs at 50 mg/kg, po measured 4 hrs post administration; format: functional
[5] = system: Mus musculus; test: Anticonvulsant activity in orally dosed DBA/2 mouse assessed as protection from tonic seizures measured 1 hr post administration; conditions: DBA/2, po
[6] = Clearance in DBA/2 mouse at 30 mg/kg; format: ADME, organism-based; design: dose 30 mg/kg; conditions: in vivo
[7] = system: Mus musculus; test: Anticonvulsant activity against po dosed electric-shock mouse model assessed as inhibition of convulsion in hind legs measured 2 hrs post administration; format: functional
[8] = system: Mus musculus; test: Anticonvulsant activity in DBA/2 mouse assessed as protection from audiogenic seizures at 10 mg/kg, po measured 1 hr post administration; format: functional
[9] = system: Mus musculus; test: Anticonvulsant activity in intraperitoneally dosed DBA/2 mouse assessed as protection from tonic seizures measured 1 hr post administration; format: functional; conditions: DBA/2, ip
[10] = system: Mus musculus; test: Anticonvulsant activity in DBA/2 mouse assessed as protection from audiogenic seizures at 30 mg/kg, ip measured 1 hr post administration; format: functional, organism-based; design: dose 30 mg/kg

Row | IC50 [2] [nM] | bioavailability [3] [%] | SMILES | Activity [1] | also measured
1 | 1000 |  | CCNc1cc2c(=O)n(NS(C)(=O)=O)c(=O)[nH]c2cc1C(F)(F)F | 53% | 
2 | 360 | 100 | CS(=O)(=O)Nn1c(=O)[nH]c2cc(C(F)(F)F)c(N3CCCOCC3)cc2c1=O |  | inhibition in vivo at 50 mg/kg [4]: 20%; ED50 [5]: 5.5 mg/kg; clearance [6]: 10.2 mL/min/kg; ED50 [7]: 10.5 mg/kg
3 | 165 |  | CS(=O)(=O)Nn1c(=O)[nH]c2cc(C(F)(F)F)c(-n3cccc3)cc2c1=O |  | 
4 | 1200 |  | CS(=O)(=O)Nn1c(=O)[nH]c2cc(C(F)(F)F)c(N)cc2c1=O |  | 
5 | 550 |  | CS(=O)(=O)Nn1c(=O)[nH]c2cc(C(F)(F)F)c(NCCO)cc2c1=O |  | Activity [8]: 20%
6 | 500 | 100 | CS(=O)(=O)Nn1c(=O)[nH]c2cc(C(F)(F)F)c(N3CCOCC3)cc2c1=O |  | clearance [6]: 135 mL/min/kg; ED50 [9]: 58 mg/kg
7 | 250 | 100 | CN(CCO)c1cc2c(=O)n(NS(C)(=O)=O)c(=O)[nH]c2cc1C(F)(F)F |  | clearance [6]: 49 mL/min/kg; ED50 [9]: 7.9 mg/kg
8 | 81 |  | CS(=O)(=O)Nn1c(=O)[nH]c2cc([N+](=O)[O-])c(-n3ccnc3)cc2c1=O | inactive | Activity [10]: Active
9 | 46 | 10 | CS(=O)(=O)Nn1c(=O)[nH]c2cc(C(F)(F)F)c(-n3cnnc3)cc2c1=O | inactive | ED50 [9]: 0.94 mg/kg; Activity [10]: Active
10 | 44 |  | CS(=O)(=O)Nn1c(=O)[nH]c2cc(C(F)(F)F)c(-n3ccnc3)cc2c1=O | inactive | Activity [10]: Active
11 | 1020 |  | CN(C)C(=O)c1ncn(-c2cc3c(=O)n(NS(C)(=O)=O)c(=O)[nH]c3cc2C(F)(F)F)n1 |  | 
12 |  | 10 | CNC(=O)c1cn(-c2cc3c(=O)n(NS(C)(=O)=O)c(=O)[nH]c3cc2C(F)(F)F)cn1 | inactive | Activity [10]: Active
13 | 420 |  | CN(C)C(=O)c1cn(-c2cc3c(=O)n(NS(C)(=O)=O)c(=O)[nH]c3cc2C(F)(F)F)cn1 |  | 
14 | 110 |  | CNC(=O)c1ncn(-c2cc3c(=O)n(NS(C)(=O)=O)c(=O)[nH]c3cc2C(F)(F)F)n1 |  | 
